Source: patent publication US20020137929A1, “1 - (3-heterocyclylphenyl) isothiourea, -isourea, -guanidine and -amidine herbicidal agents” (Intellectual Property Department, BASF Aktiengesellschaft, priority 1998, published 2002)

How the values were obtained:
[1] = test system: CHEAL (Lambsquarters, Common); assay: Postemergence herbicidal evaluation; assay type: in vivo, Chenopodium album; settings: postemergence
Outline: (§1)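 Rate range approx. 0.0156–0.500 kg/ha. Foliar application at 40 psi to ~2-week seedlings; surfactant 0.5% TWEEN 20 in 50/50 acetone/water. Evaluation 4–5 wk post-treatment by 0–9 visual injury score, means of replicate tests.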

CYPSE (Flatsedge) [2] = assay: Postemergence weed control under flooded paddy conditions; assay type: in vivo, Cyperus serotinus; settings: postemergence weeds, 3-4 weeks after treatment
Outline: (§2)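 Flood-water application, about 0.0313–0.500 kg/ha a.i. in aqueous/acetone 50/50 v/v; water depth 1.5–3 cm throughout. Weeds 3–5 cm, rice 1.5–2.5 leaf. Greenhouse; 0–9 visual rating vs control at 3–4 wk.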

ORYSAT (Rice, Tebonnet) [3] = assay: Postemergence herbicidal evaluation; assay type: in vivo, Oryza sativa, (L.) Tebonnet; settings: postemergence
Outline: as §1

ORYSAT (Rice, Tebonnet) [4] = assay: Preemergence herbicidal evaluation; assay type: in vivo, Oryza sativa, (L.) Tebonnet; settings: rated 4-5 weeks after treatment
Outline: (§3)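 Visual 0-9 rating vs control (stand, vigor, malformation, size, chlorosis, overall appearance), scored 4-5 wk after spraying. Seeded soil cups were treated preemergence with compound in aqueous acetone, ~0.0156-0.500 kg/ha equivalent.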

CYPSE (Flatsedge) [5] = assay: Preemergence weed control under flooded paddy conditions; assay type: in vivo, Cyperus serotinus; settings: rated 3-4 weeks after treatment
Outline: (§4)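 Ratings on a 0-9 visual scale cover stand, vigor, malformation, size, chlorosis and overall appearance relative to a control, taken three to four weeks post-treatment. Application was into flood water over freshly sown silt loam at roughly 0.0313 to 0.500 kg/ha.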

MOOVA (Monochoria) = assay: as above; assay type: in vivo, Monochoria vaginalis; settings: rated 3-4 weeks after treatment
Outline: as §4

AMBEL (Ragweed, Common) = assay: Preemergence herbicidal evaluation; assay type: in vivo, Ambrosia artemisifolia; settings: rated 4-5 weeks after treatment
Outline: as §3

[6] = test system: GLXMAW (Soybean, Williams); assay: Preemergence herbicidal evaluation; assay type: in vivo, Glycine max, (L.) Merr. cv Williams; settings: rated 4-5 weeks after treatment
Outline: as §3

SETVI (Foxtail, Green) = assay: Preemergence herbicidal evaluation; assay type: in vivo, Setaria viridis; settings: rated 4-5 weeks after treatment
Outline: as §3

CYPIR (Rice Flatsedge) = assay: Postemergence weed control under flooded paddy conditions; assay type: in vivo, Cyperus iria; settings: postemergence weeds, 3-4 weeks after treatment
Outline: as §2

GALAP (Galium) = assay: Postemergence herbicidal evaluation; assay type: in vivo, Galium aparine; settings: postemergence
Outline: as §1

ZEAMX (Corn, Field) = assay: Postemergence herbicidal evaluation; assay type: in vivo, Zea mays; settings: postemergence
Outline: as §1

CASOB (Sicklepod) = assay: Postemergence herbicidal evaluation; assay type: in vivo, Cassia obtusifolia; settings: postemergence
Outline: as §1

[7] = test system: SAGPY (Arrowhead (Pygmaea)); assay: Postemergence weed control under flooded paddy conditions; assay type: in vivo, Sagittaria pygmaea; settings: postemergence weeds, 3-4 weeks after treatment
Outline: as §2

`CCOC(=O)/C=C1/S/C(=N/c2cc(-n3c(=O)cc(C(F)(F)F)n(C)c3=O)c(F)cc2Cl)N(CC(=O)OCC)C1=O` [Compound 14] showed a CHEAL herbicidal rating ([1]; rate 0.0156 kg/ha) of 9.0, a CHEAL herbicidal rating ([1]; rate 0.0313 kg/ha) of 9.0 and a CHEAL herbicidal rating ([1]; rate 0.0625 kg/ha) of 9.0. The CHEAL herbicidal rating ([1]; rate 0.1250 kg/ha) was 9.0, the “Herbicidal rating CYPSE” value (CYPSE (Flatsedge) [2]; rate 0.0313 kg/ha) was 0.0 and the “Herbicidal rating CYPSE” value (CYPSE (Flatsedge) [2]; rate 0.0625 kg/ha) was 0.0. For the same compound, the “Herbicidal rating CYPSE” value (CYPSE (Flatsedge) [2]; rate 0.1250 kg/ha) was 1.5, the “Herbicidal rating CYPSE” value (CYPSE (Flatsedge) [2]; rate 0.2500 kg/ha) was 0.0 and the ORYSAT herbicidal rating (ORYSAT (Rice, Tebonnet) [3]; rate 0.0156 kg/ha) was 3.5. For the same compound, the ORYSAT herbicidal rating (ORYSAT (Rice, Tebonnet) [3]; rate 0.0313 kg/ha) was 5.5, the ORYSAT herbicidal rating (ORYSAT (Rice, Tebonnet) [3]; rate 0.0625 kg/ha) was 6.0 and the ORYSAT herbicidal rating (ORYSAT (Rice, Tebonnet) [3]; rate 0.1250 kg/ha) was 8.5. For the same compound, the “ORYSAT preemergence herbicidal rating” value (ORYSAT (Rice, Tebonnet) [4]; rate 0.0313 kg/ha) was 0.0, the “ORYSAT preemergence herbicidal rating” value (ORYSAT (Rice, Tebonnet) [4]; rate 0.0625 kg/ha) was 0.0 and the “ORYSAT preemergence herbicidal rating” value (ORYSAT (Rice, Tebonnet) [4]; rate 0.1250 kg/ha) was 0.5. The “ORYSAT preemergence herbicidal rating” value (ORYSAT (Rice, Tebonnet) [4]; rate 0.2500 kg/ha) was 1.0, the “ORYSAT preemergence herbicidal rating” value (ORYSAT (Rice, Tebonnet) [4]; rate 0.5000 kg/ha) was 3.0 and the “Herbicidal rating CYPSE” value (CYPSE (Flatsedge) [5]; 0.0313 kg/ha) was 0.0. The “Herbicidal rating CYPSE” value (CYPSE (Flatsedge) [5]; 0.0625 kg/ha) was 0.0, the “Herbicidal rating CYPSE” value (CYPSE (Flatsedge) [5]; 0.1250 kg/ha) was 3.0 and the “Herbicidal rating CYPSE” value (CYPSE (Flatsedge) [5]; 0.2500 kg/ha) was 0.0. For the same compound, the “Herbicidal rating MOOVA” value (MOOVA (Monochoria); 0.0313 kg/ha) was 4.5, the “Herbicidal rating MOOVA” value (MOOVA (Monochoria); 0.0625 kg/ha) was 4.5 and the “Herbicidal rating MOOVA” value (MOOVA (Monochoria); 0.1250 kg/ha) was 4.5. The “Herbicidal rating MOOVA” value (MOOVA (Monochoria); 0.2500 kg/ha) was 0.0, the “AMBEL preemergence herbicidal rating” value (AMBEL (Ragweed, Common); rate 0.0313 kg/ha) was 0.0 and the “AMBEL preemergence herbicidal rating” value (AMBEL (Ragweed, Common); rate 0.0625 kg/ha) was 1.0. The “AMBEL preemergence herbicidal rating” value (AMBEL (Ragweed, Common); rate 0.1250 kg/ha) was 6.5, the “AMBEL preemergence herbicidal rating” value (AMBEL (Ragweed, Common); rate 0.2500 kg/ha) was 9.0 and the “AMBEL preemergence herbicidal rating” value (AMBEL (Ragweed, Common); rate 0.5000 kg/ha) was 9.0. The “GLXMAW preemergence herbicidal rating” value ([6]; rate 0.0313 kg/ha) was 0.0, the “GLXMAW preemergence herbicidal rating” value ([6]; rate 0.0625 kg/ha) was 0.0 and the “GLXMAW preemergence herbicidal rating” value ([6]; rate 0.1250 kg/ha) was 2.0. For the same compound, the “GLXMAW preemergence herbicidal rating” value ([6]; rate 0.2500 kg/ha) was 3.0, the “GLXMAW preemergence herbicidal rating” value ([6]; rate 0.5000 kg/ha) was 6.0 and the “SETVI preemergence herbicidal rating” value (SETVI (Foxtail, Green); rate 0.0313 kg/ha) was 0.5. The “SETVI preemergence herbicidal rating” value (SETVI (Foxtail, Green); rate 0.0625 kg/ha) was 0.5, the “SETVI preemergence herbicidal rating” value (SETVI (Foxtail, Green); rate 0.1250 kg/ha) was 6.5 and the “SETVI preemergence herbicidal rating” value (SETVI (Foxtail, Green); rate 0.2500 kg/ha) was 9.0. The “SETVI preemergence herbicidal rating” value (SETVI (Foxtail, Green); rate 0.5000 kg/ha) was 9.0, the “Herbicidal rating CYPIR” value (CYPIR (Rice Flatsedge); rate 0.0313 kg/ha) was 4.0 and the “Herbicidal rating CYPIR” value (CYPIR (Rice Flatsedge); rate 0.0625 kg/ha) was 5.8. For the same compound, the “Herbicidal rating CYPIR” value (CYPIR (Rice Flatsedge); rate 0.1250 kg/ha) was 6.8, the “Herbicidal rating CYPIR” value (CYPIR (Rice Flatsedge); rate 0.2500 kg/ha) was 4.5 and the GALAP herbicidal rating (GALAP (Galium); rate 0.0156 kg/ha) was 2.0. For the same compound, the GALAP herbicidal rating (GALAP (Galium); rate 0.0313 kg/ha) was 4.0, the GALAP herbicidal rating (GALAP (Galium); rate 0.0625 kg/ha) was 5.0 and the GALAP herbicidal rating (GALAP (Galium); rate 0.1250 kg/ha) was 6.0. The ZEAMX herbicidal rating (ZEAMX (Corn, Field); rate 0.0156 kg/ha) was 7.0, the ZEAMX herbicidal rating (ZEAMX (Corn, Field); rate 0.0313 kg/ha) was 7.0 and the ZEAMX herbicidal rating (ZEAMX (Corn, Field); rate 0.0625 kg/ha) was 7.5. For the same compound, the ZEAMX herbicidal rating (ZEAMX (Corn, Field); rate 0.1250 kg/ha) was 7.5, the CASOB herbicidal rating (CASOB (Sicklepod); rate 0.0156 kg/ha) was 0.0 and the CASOB herbicidal rating (CASOB (Sicklepod); rate 0.0313 kg/ha) was 2.0. The CASOB herbicidal rating (CASOB (Sicklepod); rate 0.0625 kg/ha) was 2.0, the CASOB herbicidal rating (CASOB (Sicklepod); rate 0.1250 kg/ha) was 9.0 and the “Herbicidal rating SAGPY” value ([7]; rate 0.0313 kg/ha) was 0.0. For the same compound, the “Herbicidal rating SAGPY” value ([7]; rate 0.0625 kg/ha) was 0.0, the “Herbicidal rating SAGPY” value ([7]; rate 0.1250 kg/ha) was 0.0 and the “Herbicidal rating SAGPY” value ([7]; rate 0.2500 kg/ha) was 0.0.
